{
  "source": "patent US20210106567A1",
  "about": "“COMPOSITIONS AND METHODS FOR INHIBITING CARP-1 BINDING TO NEMO” (United States Government As Represented By The Department …, priority 2019, published 2021)",
  "key": {"MDR1": {"tested_on": "MDR1", "experiment": "Levels of drug efflux pump MDR1", "assay_type": "cell-based, human", "settings": "MDA-MB-468 cells", "from_the_text": "Of note is that SNI-1 in combination with Adriamycin provoked a greater inhibition of tumor growth when compared with the tumor growth inhibition noted in animals treated with either agent alone. […] Since TNBCs and many other cancers are often known to express drug efflux pumps that contribute to lower efficacy of drugs in clinic and development of drug-resistant tumors, it is likely that the presence/expression of these drug efflux pumps function in part to interfere with a robust anti-tumor response to a combination of SNI-1 and Adriamycin."}, "[1]": {"tested_on": "parental and chemo-resistant human and murine TNBC cells and parental renal cancer cells", "experiment": "Cytokine ELISA of culture media, chemotherapy-induced secretion", "assay_type": "cell-based", "settings": "single agent"}, "[2]": {"tested_on": "p65/RelA activation and phosphorylation of NEMO", "experiment": "Western blot for canonical NF-κB activation", "assay_type": "cell-based", "settings": "single agent, Western blot", "from_the_text": "The cells were lysed to prepare protein extracts."}, "[3]": {"tested_on": "RENCA renal cancer tumors", "experiment": "RENCA cell-derived syngeneic kidney cancer tumor model", "settings": "throughout the experiment", "procedure": "The subcutaneous tumor bearing mice were treated with indicated agents. […] The end-points for assessing anti-tumor activity involved qualitative determination via tumor growth inhibition (% T/C) where T is the median tumor volume of the treated mice and C is the median tumor volume of the Control mice on any given day of measurement."}, "4T1 TNBC tumors": {"tested_on": "4T1 TNBC tumors", "experiment": "4T1 TNBC syngeneic tumor efficacy study in Balb/c mice", "assay_type": "in vivo, mouse", "description": "Establishment of TNBC cell-derived xenografts in Syngeneic mice: Generation of 4T1 TNBC cell-derived sub-cutaneous xenografts in Balb/c mice were performed (Cheriyan et al. (2016) Oncotarget 7, 73370-73388; and Cheriyan et al. (2017) Oncotarget 8, 104928-104945). BALB/cAnNCr, 6-8-weeks old, female mice were purchased from Charles River Laboratories (Horsham, Pa.). Following suitable acclimation of animals, 1×10^6 4T1 TNBC cells were re-suspended in 200 μl of sterile saline, and implanted in the flanks using a 27-gauge needle. Tumors were allowed to grow to 500-1000 mg (˜10 days), and the aseptically harvested, minced into 3-4 mm^3 (30 mg) fragments and transplanted SC into naïve recipient mice using a standard 12 gauge trocar to serially maintain the tumor in vivo. For efficacy studies, tumors serially maintained in vivo were aseptically harvested and minced into 3-4 mm^3 (30 mg) fragments, then bilaterally transplanted subcutaneously along the flanks using a standard 12 gauge trocar. […] For the efficacy studies, SNI-1 was formulated in 8% DMSO (v/v) and 8% Cremophor (v/v) in cell grade water, pH4 as diluent.\nClinical grade ADR stock (2 mg/mL) was diluted to the appropriate concentration with cell grade water; pH4 and clinical grade CIS (1 mg/ml) diluted with USP 0.9% saline; pH6). Mice were monitored daily for changes in condition and body weight. Tumors were measured three times weekly by caliper and tumor volume (mg) was calculated using the following formula: (A×B2)/2 where A and B are the tumor length and width (in mm), respectively. […] Efficacy was also assessed quantitatively using tumor growth delay (T−C) defined as the difference between the median time (in days) required for the treatment group tumors (T) to reach 1000 mg and the median time (days) for the control group tumors to reach the same volume. Post last treatment, tumor tissue and samples from various organs (spleen, liver, kidney, heart, bone, and lungs) were collected. Additionally, the whole blood samples were obtained from a representative tumor-bearing mouse from each group via terminal cardiac puncture. Immuno-histochemical analyses of the tumor and tissue samples were performed for expression of activated RelA (serine 536 phosphorylated p65), total RelA, cleaved caspase-3, and CARP-1 proteins. The levels of pro-inflammatory cytokines in the sera were analyzed by sandwich ELISA assays following methods detailed herein (Cheriyan et al. (2016) Oncotarget 7, 73370-73388; and Cheriyan et al. (2017) Oncotarget 8, 104928-104945)."}},
  "data": [
    {"smiles": "N.N.[Cl][Pt][Cl]", "note": "[Cisplatin]", "values": [
      {"measurement": "levels of drug efflux pump MDR1", "setting": "MDR1", "value": "robust increase"},
      {"measurement": "levels of TNFα, IL-8, and IL-1β in the media", "setting": "[1]", "value": "robust increase"},
      {"measurement": "p65/RelA activation and phosphorylation of NEMO", "setting": "[2]", "value": "robust increase"},
      {"measurement": "weight loss in animals", "setting": "[3]", "value": "0.8-3.2%"},
      {"measurement": "serum levels of TNFα and IL-1β", "setting": "4T1 TNBC tumors; ELISA of sera", "value": "robustly stimulated"},
      {"measurement": "phosphorylated p65/RelA in tumors (immuno-histochemistry)", "setting": "4T1 TNBC tumors; mouse, in vivo", "value": "presence of phosphorylated p/65RelA"},
      {"measurement": "cleaved caspase-3 in tumors (immuno-histochemistry)", "setting": "4T1 TNBC tumors; versus untreated control animal", "value": "strong presence of cleaved caspase-3"}
    ]}
  ]
}
